# Calls of active or inactive are those of the source.
# What was measured:
# Genome polyprotein = Genome polyprotein (dengue virus type 2, UniProt P29990); experiment: flavivirus cap methylation enzyme inhibition – biochemical, confirmation dose response, primary screen (AID 588689); type: functional
# [1] = NIH-3T3 fibroblast cytotoxicity, dose response, cytotoxicity control, cell-based, fluorescence, Alamar Blue, secondary assay (AID 2327); type: functional;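 further: NIH-3T3 mouse fibroblasts cultured with fluconazole at 8 µg/mL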
# [2] = fluconazole-exposed Candida albicans growth modulators – fluorescence, retest, confirmation (AID 2467); type: functional, cell-based
# [3] = viability of PTEN-deleted HCT116 cells – cell-based, HCT116 PTEN knockout, dose response (AID 1047); type: functional;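 further: HCT116 colon tumor cells with PTEN knocked out; cells exposed to compound for 60 hours before readout; potency for loss of cell viability measured by luminescence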
# [4] = viability of HCT116 lacking mutant beta-catenin – cell-based, human colon tumor, dose response (AID 1045); type: functional;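 further: HCT116 colon tumor cells with beta catenin knocked out; cells exposed to compound for 60 hours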
# [5] = target: T1, Ubiquitin-conjugating enzyme E2 N (Homo sapiens, UniProt P61088); type: functional;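 further: Dose-response confirmation in a TR-FRET assay detecting UBC13-driven polyubiquitin chain formation, inhibition measured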
# T1 sequence (P61088 whole entry): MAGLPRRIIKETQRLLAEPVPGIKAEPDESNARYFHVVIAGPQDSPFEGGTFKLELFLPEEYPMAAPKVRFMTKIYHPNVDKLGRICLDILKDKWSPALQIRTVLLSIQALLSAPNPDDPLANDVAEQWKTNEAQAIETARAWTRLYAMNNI
# [6] = target: Eukaryotic translation initiation factor 4E (Mus musculus, UniProt P63073); experiment: blockers of eIF4G binding by eIF4E – biochemical, TR-FRET, dose response (AID 855); type: functional;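 further: potency for disrupting eIF4E binding to eIF4GI seen as loss of FRET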
# [7] = HEK-293T viability loss after treatment – luminescence, T-cell screen hits, cytotoxicity control for TCR NF-kB inhibitor project, dose response (AID 489026); type: functional, cell-based;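 further: cells exposed to compound about 14 hours before the viability readout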
# [8] = target: Heat shock protein HSP 90-alpha (Homo sapiens, UniProt P07900); type: functional, organism-based
# [9] = target: T2, Apoptotic protease-activating factor 1 (Homo sapiens, UniProt O14727); type: functional
# T2 sequence (O14727 whole entry): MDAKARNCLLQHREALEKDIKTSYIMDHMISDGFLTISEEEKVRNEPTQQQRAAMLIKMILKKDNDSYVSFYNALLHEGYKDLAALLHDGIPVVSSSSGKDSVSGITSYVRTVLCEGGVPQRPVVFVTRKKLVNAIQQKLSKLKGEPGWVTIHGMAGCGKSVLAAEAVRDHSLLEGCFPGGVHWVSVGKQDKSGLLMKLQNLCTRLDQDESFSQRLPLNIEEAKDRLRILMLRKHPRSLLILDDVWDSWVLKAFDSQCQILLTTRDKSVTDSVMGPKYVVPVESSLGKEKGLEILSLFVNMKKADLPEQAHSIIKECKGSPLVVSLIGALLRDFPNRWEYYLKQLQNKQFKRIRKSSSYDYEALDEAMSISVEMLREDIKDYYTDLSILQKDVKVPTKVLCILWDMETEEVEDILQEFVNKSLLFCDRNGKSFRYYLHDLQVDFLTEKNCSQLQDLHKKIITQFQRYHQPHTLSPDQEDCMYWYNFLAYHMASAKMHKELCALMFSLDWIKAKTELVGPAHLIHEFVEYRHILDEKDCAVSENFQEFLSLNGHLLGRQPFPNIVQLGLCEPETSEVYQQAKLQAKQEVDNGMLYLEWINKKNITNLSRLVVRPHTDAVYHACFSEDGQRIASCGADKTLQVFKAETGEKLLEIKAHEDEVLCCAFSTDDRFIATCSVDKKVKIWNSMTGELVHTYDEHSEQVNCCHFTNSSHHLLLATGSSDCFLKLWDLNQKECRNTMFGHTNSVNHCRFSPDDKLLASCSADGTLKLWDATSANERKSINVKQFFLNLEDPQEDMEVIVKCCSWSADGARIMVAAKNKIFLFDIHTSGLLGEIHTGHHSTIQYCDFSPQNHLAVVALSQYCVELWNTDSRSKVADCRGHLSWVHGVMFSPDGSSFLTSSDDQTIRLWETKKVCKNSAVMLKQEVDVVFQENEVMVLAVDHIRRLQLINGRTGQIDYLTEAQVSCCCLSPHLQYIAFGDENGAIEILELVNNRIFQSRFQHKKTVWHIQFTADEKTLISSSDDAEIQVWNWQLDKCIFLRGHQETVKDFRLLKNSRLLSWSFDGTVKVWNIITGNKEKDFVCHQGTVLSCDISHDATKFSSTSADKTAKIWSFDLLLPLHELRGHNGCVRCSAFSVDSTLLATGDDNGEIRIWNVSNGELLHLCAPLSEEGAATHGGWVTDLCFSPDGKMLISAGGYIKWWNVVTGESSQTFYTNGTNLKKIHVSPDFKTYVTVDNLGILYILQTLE
# INS1 = experiment: INS-1E survival protection against cytokine death – cell-based, luminescence, retest, dose response (AID 449756); type: functional; conditions: Rattus norvegicus;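 further: cell death triggered by IL-1 beta plus TNF-alpha plus IFN-gamma mixture; protective hits raise ATP signal compared with cytokine alone wells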
# Vero [10] = experiment: cells; type: functional; conditions: Chlorocebus sabaeus
# BJ [11] = experiment: BJ-TERT fibroblast viability loss – cell-based, RAS-independent, luminescence, dose response (AID 1933); type: functional; conditions: Homo sapiens
# BJ [12] = experiment: cells; type: functional, cell-based; conditions: Homo sapiens
# BJ [13] = experiment: BJ-TERT-LT-ST fibroblast viability loss – cell-based, RAS-independent, luminescence, dose response (AID 1935); type: functional; conditions: Homo sapiens;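 further: BJ fibroblasts immortalized with TERT plus LT and ST oncogenes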
# [14] = DRD fibroblast viability loss – cell-based, non-viral oncogenic, luminescence, dose response (AID 1934); type: functional; conditions: Homo sapiens
# Vero [15] = experiment: cells; type: functional, cell-based; conditions: Chlorocebus sabaeus
# [16] = target: Beta-2 adrenergic receptor (Homo sapiens, UniProt P07550); experiment: ADRB2 activation measured by internalization – cell-based, FAP fluorogen, flow cytometry, cherry pick 1, dose response (AID 588763); type: functional
# [17] = target: T3, High affinity choline transporter 1 (Homo sapiens, UniProt Q9GZV3); experiment: human choline transporter blockers, potency – cell-based, 5-point CRC, membrane potential dye, dose response (AID 504840); type: functional
# T3 sequence (Q9GZV3 whole entry): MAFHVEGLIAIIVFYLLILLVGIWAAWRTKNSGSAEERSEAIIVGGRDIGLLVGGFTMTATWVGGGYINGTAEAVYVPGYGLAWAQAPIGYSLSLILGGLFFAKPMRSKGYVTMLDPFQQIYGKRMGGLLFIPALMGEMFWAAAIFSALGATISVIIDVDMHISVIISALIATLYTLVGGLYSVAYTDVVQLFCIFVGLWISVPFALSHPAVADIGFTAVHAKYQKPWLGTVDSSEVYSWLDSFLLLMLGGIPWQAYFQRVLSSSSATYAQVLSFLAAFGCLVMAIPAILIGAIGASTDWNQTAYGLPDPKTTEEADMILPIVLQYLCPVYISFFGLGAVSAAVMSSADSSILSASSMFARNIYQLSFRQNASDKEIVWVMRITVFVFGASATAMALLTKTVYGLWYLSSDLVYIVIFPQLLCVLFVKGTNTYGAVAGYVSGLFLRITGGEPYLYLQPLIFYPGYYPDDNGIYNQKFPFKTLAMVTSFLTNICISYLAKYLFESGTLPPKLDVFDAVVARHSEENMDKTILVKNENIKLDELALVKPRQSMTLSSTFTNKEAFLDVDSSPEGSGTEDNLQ
# Coagulation factor XII = target: T4, Coagulation factor XII (Homo sapiens, UniProt P00748); type: functional;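 further: activated factor XIIa alpha cleaving a fluorogenic AMC peptide substrate; inhibitor potency from loss of enzyme activity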
# T4 sequence (P00748 whole entry): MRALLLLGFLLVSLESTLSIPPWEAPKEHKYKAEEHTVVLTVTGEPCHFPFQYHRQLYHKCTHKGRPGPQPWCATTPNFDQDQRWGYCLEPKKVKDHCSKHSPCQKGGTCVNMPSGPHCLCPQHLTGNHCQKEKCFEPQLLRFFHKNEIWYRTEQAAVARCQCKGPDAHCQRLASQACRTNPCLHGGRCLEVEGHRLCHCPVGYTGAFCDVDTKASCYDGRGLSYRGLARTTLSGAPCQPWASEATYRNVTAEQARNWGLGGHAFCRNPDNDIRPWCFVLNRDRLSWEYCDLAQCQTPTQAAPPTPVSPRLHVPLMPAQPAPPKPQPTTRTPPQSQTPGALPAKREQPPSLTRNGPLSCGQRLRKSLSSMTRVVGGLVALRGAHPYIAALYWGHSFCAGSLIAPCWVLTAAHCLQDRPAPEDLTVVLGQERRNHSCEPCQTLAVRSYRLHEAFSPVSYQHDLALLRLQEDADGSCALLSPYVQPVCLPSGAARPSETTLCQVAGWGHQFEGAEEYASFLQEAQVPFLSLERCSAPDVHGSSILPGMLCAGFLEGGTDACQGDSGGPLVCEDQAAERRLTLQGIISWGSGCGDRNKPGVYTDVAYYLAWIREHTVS
# Cytochrome P450 2C19 = Cytochrome P450 2C19 (Homo sapiens, UniProt P33261); experiment: Cytochrome panel assay with activity outcomes. Panel member name: p450-cyp2c19 Compounds with AC50 equal or less than 10 uM are considered active; type: functional; conditions: read-out: AC50
# Cytochrome P450 1A2 = target: T5, Cytochrome P450 1A2 (Homo sapiens, UniProt P05177);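 further: PubChem cytochrome P450 panel assay, CYP1A2 panel member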
# T5 sequence (P05177 whole entry): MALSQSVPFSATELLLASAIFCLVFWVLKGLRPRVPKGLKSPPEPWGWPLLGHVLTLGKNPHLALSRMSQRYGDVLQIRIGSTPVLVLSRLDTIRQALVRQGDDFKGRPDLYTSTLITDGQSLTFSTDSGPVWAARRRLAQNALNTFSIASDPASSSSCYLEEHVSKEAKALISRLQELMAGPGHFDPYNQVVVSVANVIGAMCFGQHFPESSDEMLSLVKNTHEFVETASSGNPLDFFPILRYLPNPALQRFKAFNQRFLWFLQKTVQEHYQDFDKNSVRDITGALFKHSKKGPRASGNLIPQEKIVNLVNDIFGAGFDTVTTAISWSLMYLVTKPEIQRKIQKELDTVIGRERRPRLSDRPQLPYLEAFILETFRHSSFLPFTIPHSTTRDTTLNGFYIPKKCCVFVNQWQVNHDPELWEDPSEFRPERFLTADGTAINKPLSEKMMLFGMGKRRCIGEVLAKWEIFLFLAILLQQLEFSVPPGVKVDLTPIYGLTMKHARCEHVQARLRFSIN
# Chain of Beta-2 adrenergic receptor (P07550 whole entry): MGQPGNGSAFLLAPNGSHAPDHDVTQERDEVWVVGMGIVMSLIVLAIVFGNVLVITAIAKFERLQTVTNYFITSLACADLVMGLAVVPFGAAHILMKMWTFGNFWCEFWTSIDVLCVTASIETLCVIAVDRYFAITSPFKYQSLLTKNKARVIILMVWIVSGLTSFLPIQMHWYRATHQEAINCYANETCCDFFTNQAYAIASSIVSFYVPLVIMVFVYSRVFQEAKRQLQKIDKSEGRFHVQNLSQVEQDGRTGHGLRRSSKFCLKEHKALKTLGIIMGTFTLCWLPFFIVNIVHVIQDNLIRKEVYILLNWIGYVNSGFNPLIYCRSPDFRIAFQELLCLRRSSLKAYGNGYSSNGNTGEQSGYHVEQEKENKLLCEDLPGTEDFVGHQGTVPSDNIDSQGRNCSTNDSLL
# Chain of Eukaryotic translation initiation factor 4E (P63073 whole entry): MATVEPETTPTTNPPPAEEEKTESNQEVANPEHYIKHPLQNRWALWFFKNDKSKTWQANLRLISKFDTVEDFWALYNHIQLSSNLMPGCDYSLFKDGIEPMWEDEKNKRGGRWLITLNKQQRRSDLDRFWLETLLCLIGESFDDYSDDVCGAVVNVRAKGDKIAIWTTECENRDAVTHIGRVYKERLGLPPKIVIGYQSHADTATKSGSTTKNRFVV
# Chain of Genome polyprotein (P29990 2492-3391 limits assumed): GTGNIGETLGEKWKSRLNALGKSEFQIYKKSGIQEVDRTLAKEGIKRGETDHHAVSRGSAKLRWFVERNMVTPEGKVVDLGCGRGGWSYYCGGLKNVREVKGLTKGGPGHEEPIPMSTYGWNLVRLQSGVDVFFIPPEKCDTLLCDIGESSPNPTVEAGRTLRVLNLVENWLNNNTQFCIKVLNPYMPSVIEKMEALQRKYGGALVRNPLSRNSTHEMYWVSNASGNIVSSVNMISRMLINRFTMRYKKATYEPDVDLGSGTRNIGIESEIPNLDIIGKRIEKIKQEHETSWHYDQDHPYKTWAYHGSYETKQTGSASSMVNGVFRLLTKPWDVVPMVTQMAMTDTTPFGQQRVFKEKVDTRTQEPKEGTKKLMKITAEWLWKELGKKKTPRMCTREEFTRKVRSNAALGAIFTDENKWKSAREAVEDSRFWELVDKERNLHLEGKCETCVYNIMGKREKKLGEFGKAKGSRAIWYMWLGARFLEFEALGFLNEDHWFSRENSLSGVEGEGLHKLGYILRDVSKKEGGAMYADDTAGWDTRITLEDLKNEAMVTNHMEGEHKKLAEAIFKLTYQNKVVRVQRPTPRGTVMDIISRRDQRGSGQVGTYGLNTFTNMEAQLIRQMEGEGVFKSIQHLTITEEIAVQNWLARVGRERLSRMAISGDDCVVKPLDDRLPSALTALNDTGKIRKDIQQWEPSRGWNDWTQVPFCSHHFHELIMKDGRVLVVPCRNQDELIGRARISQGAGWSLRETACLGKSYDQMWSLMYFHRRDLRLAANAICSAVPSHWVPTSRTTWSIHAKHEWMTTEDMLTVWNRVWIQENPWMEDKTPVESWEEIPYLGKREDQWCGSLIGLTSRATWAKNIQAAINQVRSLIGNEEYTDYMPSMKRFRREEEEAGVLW
# Chain of Cytochrome P450 2C19 (P33261 whole entry): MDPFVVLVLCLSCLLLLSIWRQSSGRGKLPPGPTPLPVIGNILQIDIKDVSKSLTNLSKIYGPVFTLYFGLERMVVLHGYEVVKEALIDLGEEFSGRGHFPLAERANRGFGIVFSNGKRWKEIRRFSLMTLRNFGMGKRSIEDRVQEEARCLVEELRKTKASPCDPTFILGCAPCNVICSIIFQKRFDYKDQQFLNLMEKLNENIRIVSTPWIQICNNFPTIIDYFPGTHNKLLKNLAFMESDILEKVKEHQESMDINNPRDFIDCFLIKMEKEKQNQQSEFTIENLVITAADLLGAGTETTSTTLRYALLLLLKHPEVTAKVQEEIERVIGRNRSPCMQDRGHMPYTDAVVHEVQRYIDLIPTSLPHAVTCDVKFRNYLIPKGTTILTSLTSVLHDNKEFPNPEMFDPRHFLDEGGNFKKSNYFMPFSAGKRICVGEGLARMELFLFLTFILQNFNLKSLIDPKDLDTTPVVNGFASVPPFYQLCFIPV
structure (smiles),measurement,setting,value
COc1ccccc1N(O)C1CC(=O)N(c2ccc(F)cc2)C1=O (configuration not stated),IC50,Genome polyprotein,62 µM (active)
CCCCCCCCCCCCCCCC[n+]1cccc(C(=O)N(CC)CC)c1,EC50,[1],41.8 µM (active)
same,EC50,[2],> 38 µM (not active)
same,EC50,[3],6.46 µM (active)
same,EC50,[4],5.92 µM (active)
same,IC50,[5],> 20 µM (inactive)
same,IC50,[6],28.9 µM (active)
same,IC50,[7],24.8 µM (inactive)
same,AC50,[8],2.89 µM (active)
same,IC50,[9],21.5 µM (active)
same,AC50,INS1,4.92 µM (active)
same,CC50,Vero [10],18.1 µM (active)
N#CC1=C(N)OC2=C(CCc3ccccc32)C1c1ccccc1 (configuration not stated),EC50,BJ [11],0.645 µM (inconclusive)
same,EC50,BJ [12],13.5 µM (active)
same,EC50,BJ [13],0.689 µM (inconclusive)
same,EC50,[14],0.61 µM (active)
same,IC50,Vero [15],> 25 µM (active)
same,CC50,Vero [10],0.17 µM (active)
same,EC50,[16],52.5 µM (inactive)
CCOC(=O)c1nc(NNC(=O)c2ccc([N+](=O)[O-])cc2)sc1C,EC50,[1],30.9 µM (active)
same,EC50,[2],2.62 µM (active)
same,IC50,[17],9.91 µM (active)
same,AC50,INS1,2.7 µM (active)
Cc1cc(OC(=O)c2ccc(Cl)cc2Cl)nc(C)n1,IC50,Coagulation factor XII,> 50 µM (inconclusive)
same,AC50,Cytochrome P450 2C19,28.2 µM (inconclusive)
same,AC50,Cytochrome P450 1A2,28.2 µM (inconclusive)
O=C(C(c1ccccc1)c1ccccc1)N1CCN(c2ccccn2)CC1,EC50,[16],0.0379 µM (active)
